Data: ChEMBL document CHEMBL4825722, “Discovery of Potent Selective Nonzinc Binding Autotaxin Inhibitor BIO-32546” (ACS Med Chem Lett, 2021)

What was measured:
[1] = Clearance in cynomolgus monkey at 0.2 mg/kg, iv; assay type: ADME, organism-based, Macaca fascicularis; details: in vivo
[2] = Volume of distribution at steady state in rat at 1.0 mg/kg, iv; assay type: ADME, organism-based; details: in vivo, read-out: Vdss
[3] = Half life in dog at 0.2 mg/kg, iv; assay type: ADME, organism-based, Canis lupus familiaris; details: in vivo
[4] = AUC (0 to 24 hrs) in rat at 1 mg/kg, iv; assay type: ADME, organism-based; parameters: time < 24 hr, route intravenous, dose 1 mg/kg; details: in vivo
[5] = AUC (0 to 24 hrs) in dog at 1.0 mg/kg, po; assay type: ADME, organism-based, Canis lupus familiaris; parameters: time < 24 hr, route oral, dose 1 mg/kg; details: in vivo
[6] = AUC (0 to 24 hrs) in cynomolgus monkey at 1.0 mg/kg, po; assay type: ADME, organism-based, Macaca fascicularis; parameters: time < 24 hr, route oral, dose 1 mg/kg; details: in vivo
[7] = Cmax in dog at 1.0 mg/kg, po; assay type: ADME, organism-based, Canis lupus familiaris; parameters: route oral, dose 1 mg/kg; details: in vivo
[8] = Oral bioavailability in rat at 10 mg/kg; assay type: ADME, organism-based; details: in vivo
[9] = Oral bioavailability in cynomolgus monkey at 1.0 mg/kg; assay type: ADME, organism-based, Macaca fascicularis; details: in vivo
[10] = Apparent permeability across basolateral to apical side in human Caco-2 cells incubated for 120 mins by lucifer yellow based LC-MS/MS analysis
[11] = Protein binding in human plasma assessed as unbound fraction at 2 uM by rapid equilibrium dialysis method; assay type: ADME, cell-free
[12] = molecular target: Cytochrome P450 3A4 (Homo sapiens, UniProt P08684); experiment: Inhibition of CYP3A4 in human liver microsomes incubated for 15 mins in presence of NADPH by LC-MS/MS analysis; assay type: ADME
[13] = molecular target: Cytochrome P450 2C9 (Homo sapiens, UniProt P11712); experiment: Inhibition of CYP2C9 in human liver microsomes incubated for 15 mins in presence of NADPH by LC-MS/MS analysis; assay type: ADME
[14] = molecular target: Cytochrome P450 2D6 (Homo sapiens, UniProt P10635); experiment: Inhibition of CYP2D6 in human liver microsomes incubated for 15 mins in presence of NADPH by LC-MS/MS analysis; assay type: ADME
[15] = Clearance in C57BL/6 mouse plasma at 2.32 mg/kg; assay type: ADME, organism-based
[16] = AUC (0 to 24 hrs) in C57BL/6 mouse brain at 2.32 mg/kg, iv; assay type: ADME, organism-based; parameters: time < 24 hr, route intravenous, dose 2.32 mg/kg
[17] = Cmax in C57BL/6 mouse plasma at 2.32 mg/kg, iv; assay type: ADME, organism-based; parameters: route intravenous, dose 2.32 mg/kg
[18] = Cmax in C57BL/6 mouse brain at 2.32 mg/kg, iv; assay type: ADME, organism-based; parameters: route intravenous, dose 2.32 mg/kg
[19] = Cmax in C57BL/6 mouse plasma at 10 mg/kg, po; assay type: ADME, organism-based; parameters: route oral, dose 10 mg/kg
[20] = Cmax in C57BL/6 mouse brain at 10 mg/kg, po; assay type: ADME, organism-based; parameters: route oral, dose 10 mg/kg
[21] = Tmax in C57BL/6 mouse brain at 10 mg/kg, po; assay type: ADME, organism-based
[22] = Protein binding in C57BL/6 mouse brain assessed as unbound fraction; assay type: ADME, tissue-based
[23] = test system: Rattus norvegicus; experiment: Effect on Sprague-Dawley rat CFA inflammatory […] model assessed as reduction in 20:4 LPA level at 0.1 mg/kg, po after 6 hrs by LC-MS/MS analysis; assay type: functional; parameters: scale not given: the % may be the effect or the level left
[24] = test system: Rattus norvegicus; experiment: Effect on Sprague-Dawley rat CFA inflammatory […] model assessed as reduction in 20:4 LPA level at 3 mg/kg, po after 6 hrs by LC-MS/MS analysis; assay type: functional; parameters: scale not given: the % may be the effect or the level left
[25] = molecular target: Sphingosine 1-phosphate receptor 1 (Homo sapiens, UniProt P21453); experiment: Inhibition of S1P1 (unknown origin)
[26] = molecular target: Sphingosine 1-phosphate receptor 2 (Homo sapiens, UniProt O95136); experiment: Inhibition of S1P2 (unknown origin)
[27] = molecular target: T1, Sphingosine 1-phosphate receptor 4 (Homo sapiens, UniProt O95977); experiment: Inhibition of S1P4 (unknown origin)
T1 sequence (O95977 whole entry): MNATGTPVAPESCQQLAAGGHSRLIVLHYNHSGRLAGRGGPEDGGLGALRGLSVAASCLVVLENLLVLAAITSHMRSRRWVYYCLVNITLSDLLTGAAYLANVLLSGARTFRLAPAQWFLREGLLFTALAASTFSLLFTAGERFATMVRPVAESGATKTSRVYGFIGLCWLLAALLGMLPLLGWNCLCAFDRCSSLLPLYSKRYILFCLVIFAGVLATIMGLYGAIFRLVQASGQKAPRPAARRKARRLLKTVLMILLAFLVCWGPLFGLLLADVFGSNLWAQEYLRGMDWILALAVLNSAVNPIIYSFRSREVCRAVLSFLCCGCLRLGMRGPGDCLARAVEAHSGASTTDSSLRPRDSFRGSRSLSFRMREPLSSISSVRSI

[28] = molecular target: Lysophosphatidic acid receptor 1 (Homo sapiens, UniProt Q92633); experiment: Inhibition of LPA1 (unknown origin)
[29] = molecular target: Lysophosphatidic acid receptor 2 (Homo sapiens, UniProt Q9HBW0); experiment: Inhibition of LPA2 (unknown origin)
[30] = molecular target: Lysophosphatidic acid receptor 5 (Homo sapiens, UniProt Q9H1C0); experiment: Inhibition of LPA5 (unknown origin)
[31] = Drug concentration in mouse brain at 10 mg/kg, po; assay type: ADME, organism-based; details: in vivo
[32] = test system: Rattus norvegicus; experiment: Effect on Sprague-Dawley rat CFA inflammatory […] model assessed as reduction in 20:4 LPA level at 0.3 mg/kg after 6 hrs by LC-MS/MS analysis; assay type: functional; parameters: scale not given: the % may be the effect or the level left
[33] = Drug concentration in Sprague-Dawley rat at 0.1 mg/kg, po after 6 hrs by LC-MS/MS analysis; assay type: ADME, organism-based; details: in vivo, read-out: Drug uptake
[34] = Drug concentration in Sprague-Dawley rat at 0.3 mg/kg, po after 6 hrs by LC-MS/MS analysis; assay type: ADME, organism-based; details: in vivo, read-out: Drug uptake
[35] = test system: Rattus norvegicus; experiment: Effect on po dosed Sprague-Dawley rat CFA inflammatory pain model assessed as reduction in LPA level administered day 2 post CFA challenge and measured after 6 hrs by LC-MS/MS analysis; details: dose 0.1-10 mg/kg

Sequence of Cytochrome P450 2C9 (P11712 whole entry): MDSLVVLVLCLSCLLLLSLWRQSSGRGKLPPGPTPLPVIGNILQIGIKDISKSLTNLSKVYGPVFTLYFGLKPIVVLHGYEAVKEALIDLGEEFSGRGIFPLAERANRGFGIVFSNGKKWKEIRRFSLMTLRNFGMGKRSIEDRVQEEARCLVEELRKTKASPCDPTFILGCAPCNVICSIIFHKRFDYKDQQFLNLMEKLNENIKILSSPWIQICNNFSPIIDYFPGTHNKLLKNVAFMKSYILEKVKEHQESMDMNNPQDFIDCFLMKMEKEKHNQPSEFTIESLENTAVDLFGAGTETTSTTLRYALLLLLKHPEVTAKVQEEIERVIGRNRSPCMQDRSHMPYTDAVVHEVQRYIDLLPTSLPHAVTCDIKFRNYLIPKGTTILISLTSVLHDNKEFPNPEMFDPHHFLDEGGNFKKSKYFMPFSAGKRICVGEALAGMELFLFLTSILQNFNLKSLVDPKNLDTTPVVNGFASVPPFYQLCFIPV
Sequence of Sphingosine 1-phosphate receptor 2 (O95136 whole entry): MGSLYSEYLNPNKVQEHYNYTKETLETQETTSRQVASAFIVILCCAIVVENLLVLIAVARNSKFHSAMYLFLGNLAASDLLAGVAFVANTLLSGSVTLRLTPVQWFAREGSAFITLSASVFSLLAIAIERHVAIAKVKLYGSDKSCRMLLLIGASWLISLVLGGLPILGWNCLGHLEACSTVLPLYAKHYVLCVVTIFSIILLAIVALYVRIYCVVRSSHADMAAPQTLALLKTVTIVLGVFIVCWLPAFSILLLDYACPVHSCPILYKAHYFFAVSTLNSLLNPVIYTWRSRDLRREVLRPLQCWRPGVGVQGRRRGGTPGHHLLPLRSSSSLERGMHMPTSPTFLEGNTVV
Sequence of Sphingosine 1-phosphate receptor 1 (P21453 whole entry): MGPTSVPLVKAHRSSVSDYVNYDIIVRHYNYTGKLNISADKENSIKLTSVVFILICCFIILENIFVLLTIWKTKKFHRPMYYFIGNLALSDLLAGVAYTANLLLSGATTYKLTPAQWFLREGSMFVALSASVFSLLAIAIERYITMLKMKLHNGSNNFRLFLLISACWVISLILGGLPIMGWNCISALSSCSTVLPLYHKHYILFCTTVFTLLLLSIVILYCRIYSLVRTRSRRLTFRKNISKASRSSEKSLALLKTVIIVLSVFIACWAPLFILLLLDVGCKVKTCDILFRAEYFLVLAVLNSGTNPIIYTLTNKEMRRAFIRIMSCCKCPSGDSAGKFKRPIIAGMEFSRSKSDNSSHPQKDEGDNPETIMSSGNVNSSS
Sequence of Lysophosphatidic acid receptor 2 (Q9HBW0 whole entry): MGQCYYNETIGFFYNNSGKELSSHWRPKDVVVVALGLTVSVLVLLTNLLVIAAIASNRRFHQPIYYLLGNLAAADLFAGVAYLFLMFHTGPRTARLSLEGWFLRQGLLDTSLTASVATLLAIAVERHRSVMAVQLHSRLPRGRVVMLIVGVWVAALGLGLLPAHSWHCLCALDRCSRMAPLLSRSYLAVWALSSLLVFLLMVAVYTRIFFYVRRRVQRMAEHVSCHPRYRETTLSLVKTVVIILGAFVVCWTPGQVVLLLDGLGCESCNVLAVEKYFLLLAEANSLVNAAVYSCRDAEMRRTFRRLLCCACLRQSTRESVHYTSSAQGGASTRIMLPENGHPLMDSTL
Sequence of Lysophosphatidic acid receptor 1 (Q92633 whole entry): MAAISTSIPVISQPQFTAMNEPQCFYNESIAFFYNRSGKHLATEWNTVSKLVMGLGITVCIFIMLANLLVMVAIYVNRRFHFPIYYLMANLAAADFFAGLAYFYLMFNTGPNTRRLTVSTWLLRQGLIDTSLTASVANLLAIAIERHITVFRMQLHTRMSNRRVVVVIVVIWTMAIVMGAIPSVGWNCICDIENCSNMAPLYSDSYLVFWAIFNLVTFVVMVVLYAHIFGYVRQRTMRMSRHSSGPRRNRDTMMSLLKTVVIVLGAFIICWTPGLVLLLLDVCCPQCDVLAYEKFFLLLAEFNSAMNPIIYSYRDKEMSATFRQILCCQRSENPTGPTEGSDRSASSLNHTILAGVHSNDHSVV
Sequence of Lysophosphatidic acid receptor 5 (Q9H1C0 whole entry): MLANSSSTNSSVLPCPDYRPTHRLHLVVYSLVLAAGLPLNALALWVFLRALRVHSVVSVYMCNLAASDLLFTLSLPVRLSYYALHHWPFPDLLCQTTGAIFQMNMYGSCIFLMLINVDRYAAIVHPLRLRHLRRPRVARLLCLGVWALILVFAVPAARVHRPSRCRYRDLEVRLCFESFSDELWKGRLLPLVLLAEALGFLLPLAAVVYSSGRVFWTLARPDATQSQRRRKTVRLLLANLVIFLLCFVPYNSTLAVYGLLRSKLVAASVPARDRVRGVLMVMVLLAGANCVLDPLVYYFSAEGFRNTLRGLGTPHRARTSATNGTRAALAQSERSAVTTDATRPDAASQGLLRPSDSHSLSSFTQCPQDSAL
Sequence of Cytochrome P450 3A4 (P08684 whole entry): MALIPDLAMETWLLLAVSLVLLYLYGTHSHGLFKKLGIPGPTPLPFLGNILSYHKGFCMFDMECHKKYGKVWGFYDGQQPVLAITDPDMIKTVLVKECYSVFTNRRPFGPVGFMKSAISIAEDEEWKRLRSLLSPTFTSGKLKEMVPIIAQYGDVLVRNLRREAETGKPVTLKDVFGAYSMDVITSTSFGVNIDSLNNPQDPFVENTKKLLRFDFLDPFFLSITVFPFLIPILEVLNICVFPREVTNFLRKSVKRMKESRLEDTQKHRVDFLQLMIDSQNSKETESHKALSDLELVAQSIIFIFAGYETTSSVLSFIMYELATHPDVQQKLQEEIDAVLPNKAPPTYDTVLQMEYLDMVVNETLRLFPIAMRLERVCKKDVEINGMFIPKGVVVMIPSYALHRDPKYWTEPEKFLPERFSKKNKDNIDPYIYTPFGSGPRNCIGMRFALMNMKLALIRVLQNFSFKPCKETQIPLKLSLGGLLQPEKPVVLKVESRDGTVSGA
Sequence of Cytochrome P450 2D6 (P10635 whole entry): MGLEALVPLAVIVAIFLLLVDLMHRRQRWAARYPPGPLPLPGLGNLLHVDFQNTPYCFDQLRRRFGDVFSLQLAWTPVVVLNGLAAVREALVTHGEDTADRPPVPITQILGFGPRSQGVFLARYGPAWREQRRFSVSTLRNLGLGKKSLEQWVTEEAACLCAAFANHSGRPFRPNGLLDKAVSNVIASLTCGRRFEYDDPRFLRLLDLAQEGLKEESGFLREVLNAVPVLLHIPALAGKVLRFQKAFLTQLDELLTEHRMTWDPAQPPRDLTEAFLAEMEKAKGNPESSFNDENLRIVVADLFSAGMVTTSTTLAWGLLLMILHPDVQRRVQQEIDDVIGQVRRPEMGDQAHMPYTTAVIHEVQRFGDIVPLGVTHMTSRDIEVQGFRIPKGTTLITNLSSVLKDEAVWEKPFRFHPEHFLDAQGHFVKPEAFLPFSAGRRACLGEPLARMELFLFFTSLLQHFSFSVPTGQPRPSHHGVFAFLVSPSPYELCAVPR

SMILES: C[C@@H](c1ccc2ccc(O[C@H]3CC[C@@H](C(F)(F)F)CC3)c(C(F)(F)F)c2c1)N1C2CCC1CC(C(=O)O)C2 (stereo not given in full)
- clearance [1]: 9.3 mL/min/kg
- Vd [2]: 3 L/kg
- half-life [3]: 14 h
- AUC(0-t) at 24 h [4]: 594 ng·h/mL
- AUC(0-t) at 24 h [5]: 6590 ng·h/mL
- AUC(0-t) at 24 h [6]: 614 ng·h/mL
- Cmax [7]: 376 ng/mL
- bioavailability [8]: 66%
- bioavailability [9]: 34%
- Papp B→A at 2 h [10]: 40.3 ×10⁻⁶ cm/s
- Fu [11]: 0.66%
- IC50 [12]: > 10 µM
- IC50 [13]: > 10 µM
- IC50 [14]: > 10 µM
- clearance [15]: 6.09 mL/min/kg
- AUC(0-t) at 24 h [16]: 3020 ng·h/mL
- Cmax [17]: 1270 ng/mL
- Cmax [18]: 274 ng/mL
- Cmax [19]: 1070 ng/mL
- Cmax [20]: 823 ng/mL
- Tmax [21]: 7 h
- Fu [22]: 0.096%
- Activity [23]: 89%
- Activity [24]: 61%
- IC50 [25]: > 10 µM
- IC50 [26]: > 10 µM
- IC50 [27]: > 10 µM
- IC50 [28]: > 10 µM
- IC50 [29]: > 10 µM
- IC50 [30]: > 10 µM
- AUC [31]: 8840 ng·h/mL
- Activity [32]: 92%
- concentration at 6 h [33]: 0.95 ng/mL
- concentration at 6 h [34]: 4.3 ng/mL
- Activity [35]: Dose-Dependent Effect
